Data on 42 compounds can be found in patent US8871934B2, “Fluorene compound and pharmaceutical use thereof” (Japan Tobacco Inc., priority 2008, dated 2014).

In the experiment the target is human PDHK2 (hPDHK2) (Homo sapiens (Human), UniProt Q15119). Briefly: Inhibitory action of PDHK activity in vitro (kinase reaction, residual PDH activity measured). The class given is biochemical.
Setting [1] is: PDHK inhibitory activity, class symbol of IC50.
The mark [2] stands for this setting: read-out: PDHK inhibitory activity IC50.

Where two headings read alike, the source gives them in different places.

Consider `OCCCCOc1cc(-c2cncnc2)c2c(c1)C(O)(C(F)(F)F)c1ccccc1-2` (stereo not drawn) [compound 428], for which the IC50 runs as follows: under setting [1], less than 100 nM; under setting [2], 25 nM.
In the same order, the values of `CN(CCO)C(=O)c1cc(-c2cncnc2)c2c(c1)C(O)(C(F)(F)F)c1ccccc1-2` (stereo not drawn) [compound 372] are 100 to 1000 nM and 564 nM.
For `CN(CCOc1ccc2c(c1)C(O)(C(F)(F)F)c1ccccc1-2)C(=O)OC(C)(C)C` (stereo not drawn) [compound 324], in that order: 100 to 1000 nM and 203 nM.
For `O=C(O)CCCCOc1cc(Cl)c2c(c1)C(O)(C(F)(F)F)c1ccccc1-2` (stereo not drawn) [compound 384], in that order: 100 to 1000 nM and 219 nM.
`O=C(c1ccc2c(c1)C(O)(C(F)(F)F)c1ccccc1-2)N1CC1` (stereo not drawn) [compound 78]: the IC50 runs as follows: under setting [1], greater than 1000 nM; under setting [2], 1360 nM.
For `CN(CCOc1cc(-c2cncnc2)c2c(c1)C(O)(C(F)(F)F)c1ccccc1-2)C(=O)CO` (stereo not drawn) [compound 424], in that order: less than 100 nM and 23 nM.
For `OC1(C(F)(F)F)c2ccccc2-c2ccc(N3CCOCC3)cc21` (stereo not drawn) [compound 161], in that order: greater than 1000 nM and 2110 nM.
For `OC1(C(F)(F)F)c2ccccc2-c2ccc(-c3ccc(Cl)cc3)cc21` (stereo not drawn) [compound 179], in that order: greater than 1000 nM and 1340 nM.
`CN(C)C(=O)c1ccc2c(c1)C(O)(C(F)(F)F)c1ccccc1-2` (stereo not drawn) [compound 31]: the IC50 reads like this: under setting [1], greater than 1000 nM; under setting [2], 1350 nM.
As to `C#Cc1cc(-c2cnn(C)c2)cc2c1-c1ccccc1C2(O)C(F)(F)F` (stereo not drawn) [compound 578], the IC50 by setting is: under setting [1], less than 100 nM; under setting [2], 78 nM.
For `NC(=O)c1ccc(-c2ccc3c(c2)C(O)(C(F)(F)F)c2ccccc2-3)cc1` (stereo not drawn) [compound 199], the IC50 was 100 to 1000 nM under setting [1] and 182 nM under setting [2].
In the same order, the values of `CNC(=O)c1ccc(-c2ccc3c(c2)C(O)(C(F)(F)F)c2ccccc2-3)cc1Cl` (stereo not drawn) [compound 240] are 100 to 1000 nM and 149 nM.
For `NC(=O)c1cc(-c2cnn(CCO)c2)cc2c1-c1ccccc1C2(O)C(F)(F)F` (stereo not drawn) [compound 536], in that order: less than 100 nM and 54 nM.
For `O=C(NCCCO)c1ccc2c(c1)C(O)(C(F)(F)F)c1ccccc1-2` (stereo not drawn) [compound 311], in that order: greater than 1000 nM and 7150 nM.
As for `CC(C)C(=O)Nc1ccc2c(c1)-c1ccccc1C2(O)C(F)(F)F` (stereo not drawn) [compound 101], the IC50 runs as follows: under setting [1], greater than 1000 nM; under setting [2], 10300 nM.
For the compound `CC(C)(O)c1cc(-c2cnn(CCO)c2)cc2c1-c1ccccc1C2(O)C(F)(F)F` (stereo not drawn) [compound 592], the IC50 was greater than 1000 nM (class symbol of IC50, read-out: PDHK inhibitory activity) and greater than 1000 nM under setting [2].
With `Cc1cc(-c2cnn(C(C)(C)C(=O)O)c2)c2c(c1)C(O)(C(F)(F)F)c1ccccc1-2` (single isomer, unassigned) [compound 574], the IC50 is, setting by setting: under setting [1], less than 100 nM; under setting [2], 52 nM.
In the case of `O=C(c1ccc2c(c1)C(O)(C(F)(F)F)c1ccccc1-2)N1CCCC1` (stereo not drawn) [compound 53], the IC50 reads like this: under setting [1], 100 to 1000 nM; under setting [2], 567 nM.
For `CNC(=O)c1ccc2c(c1)-c1ccccc1C2(O)C(F)(F)F` (stereo not drawn) [compound 43], in that order: greater than 1000 nM and 3920 nM.
For the compound `Cn1cc(-c2cc(OCC(CO)CO)cc3c2-c2ccccc2C3(O)C(F)(F)F)cn1` (stereo not drawn) [compound 622], the IC50 reads like this: (PDHK inhibitory activity (class symbol)) less than 100 nM; under setting [2], 33 nM.
As for `CN(C)C(=O)c1ccc2c(c1)-c1ccccc1C2(O)C(F)(F)F` (stereo not drawn) [compound 44], the IC50 under setting [1] is greater than 1000 nM and the IC50 under setting [2] was greater than 100000 nM.
In the same order, the values of `O=C(O)CCCOc1cc(-c2cccnc2)c2c(c1)C(O)(C(F)(F)F)c1ccccc1-2` (single isomer, unassigned) [compound 561] are less than 100 nM and 50 nM.
In the same order, the values of `CNc1ccc2c(c1)C(O)(C(F)(F)F)c1ccccc1-2` (stereo not drawn) [compound 95] are greater than 1000 nM and 7830 nM.
In the same order, the values of `CC(C)C(=O)N1CCN(c2ccc3c(c2)C(O)(C(F)(F)F)c2ccccc2-3)CC1` (stereo not drawn) [compound 208] are 100 to 1000 nM and 677 nM.
Consider `OCCn1cc(-c2cnc3c(c2)C(O)(C(F)(F)F)c2ccccc2-3)cn1` (stereo not drawn) [compound 563], for which the IC50 under setting [1] was less than 100 nM and the IC50 under setting [2] came out at 63 nM.
In the same order, the values of `CC(C)Cn1cc(-c2cccc3c2-c2ccccc2C3(O)C(F)(F)F)cn1` (stereo not drawn) [compound 386] are less than 100 nM and 89 nM.
With `COCCOC1CN(C(=O)c2ccc3c(c2)C(O)(C(F)(F)F)c2ccccc2-3)C1` (stereo not drawn) [compound 106], the IC50 is, setting by setting: under setting [1], 100 to 1000 nM; under setting [2], 461 nM.
For `OC1(C(F)(F)F)c2ccccc2-c2c(-c3ccsc3)cccc21` (stereo not drawn) [compound 309], in that order: greater than 1000 nM and greater than 10000 nM.
In the same order, the values of `OC1(C(F)(F)F)c2ccccc2-c2ccc(Cl)cc21` (stereo not drawn) [compound 5] are greater than 1000 nM and 1170 nM.
In the same order, the values of `Cc1cccc(-c2ccc3c(c2)C(O)(C(F)(F)F)c2ccccc2-3)c1` (stereo not drawn) [compound 137] are greater than 1000 nM and 1010 nM.
Regarding `Cc1cc(-c2cnn(CC(N)=O)c2)c2c(c1)[C@@](O)(C(F)(F)F)c1ccccc1-2` (stereo in doubt) [compound 532], the IC50 was 16 nM (PDHK inhibitory activity IC50 (μmol/L)) and less than 100 nM under setting [1].
Consider `CN(C)C(=O)C1CCCN1C(=O)c1ccc2c(c1)C(O)(C(F)(F)F)c1ccccc1-2` (stereo not drawn) [compound 178], for which the IC50 under setting [1] was greater than 1000 nM and the IC50 under setting [2] is greater than 10000 nM.
In the case of `Cn1cc(-c2cc(OCC(O)CO)cc3c2-c2ccccc2C3(O)C(F)(F)F)cn1` (stereo not drawn) [compound 571], the IC50 runs as follows: under setting [1], less than 100 nM; under setting [2], 50 nM.
In the same order, the values of `OC1(C(F)(F)F)c2ccccc2-c2c(Cl)cc(Cl)cc21` (stereo not drawn) [compound 21] are 100 to 1000 nM and 302 nM.
On to `CCc1cc(CO)c2c(c1)C(O)(C(F)(F)F)c1ccccc1-2` (stereo not drawn) [compound 642], for which the IC50 is, setting by setting: (read-out: PDHK inhibitory activity (class symbol)) greater than 1000 nM; under setting [2], greater than 1000 nM.
On to `O=C(c1cc(Br)c2c(c1)C(O)(C(F)(F)F)c1ccccc1-2)N1CCC1` (stereo not drawn) [compound 114], for which the IC50 under setting [1] is less than 100 nM and the IC50 under setting [2] worked out at 51 nM.
In the same order, the values of `OC1(C(F)(F)F)c2ccccc2-c2c(-c3nnco3)cccc21` (stereo not drawn) [compound 140] are greater than 1000 nM and 2400 nM.
In the same order, the values of `CC(O)c1cc(-c2cnn(CCO)c2)cc2c1-c1ccccc1C2(O)C(F)(F)F` (stereo not drawn) [compound 586] are 100 to 1000 nM and 513 nM.
For `CNC(=O)c1cccc2c1-c1ccccc1C2(O)C(F)(F)F` (stereo not drawn) [compound 34], in that order: greater than 1000 nM and 33200 nM.
With `O=C(O)CCCOc1cc(Cl)c2c(c1)C(O)(C(F)(F)F)c1ccccc1-2` (stereo not drawn) [compound 478], the IC50 by setting is: under setting [1], 100 to 1000 nM; under setting [2], 433 nM.
For `CNCCOc1ccc2c(c1)C(O)(C(F)(F)F)c1ccccc1-2` (stereo not drawn) [compound 321], in that order: greater than 1000 nM and 5380 nM.
In the same order, the values of `Cn1cc(-c2cc(Cl)cc3c2-c2ccccc2C3(O)C(F)(F)F)cn1` (stereo not drawn) [compound 286] are less than 100 nM and 17 nM.
